Patent US11559528B2, “BACE1 inhibition for the treatment of cancer” (The Cleveland Clinic Foundation, priority 2019, dated 2023)
“Also recorded” adds a separate entry of the source.

Assays:
[1] = system: GSCs (T387, T4121, and U87); test: Cell viability (cell titer) assay on glioma stem cells; type: cell-based, human; conditions: MK-8931 10 and 50 μg/mL, three days
Description: (§1) FIG. 16, panels A-E. MK-8931 Treatment Had Little Effect on Glioma Stem Cells. (A and B) Tumorsphere formation assay to examine the effect of MK-8931 treatment on glioma stem cells (GSCs). Representative images (A) of tumorsphere derived from T4121 GSCs treated with MK-8931 (50 μg/mL) or the vehicle control. Quantifications (B) show the number and size of tumorsphere derived from T4121 GSCs treated with MK-8931 (50 μg/mL) or the control. Data are shown as mean±SEM. NS (not significant)≥0.05, Student's t-test. […] GAPDH was blotted as loading control. (D) Immunoblot analysis of the apoptotic markers cleaved-PARP and cleaved caspase-3 in GSCs (T387 and T4121) treated with MK-8931 (50 μg/mL), etoposide (Etop, 1 μM), or the vehicle control for different time as indicated. GAPDH was blotted as loading control. […] Ctl: Control; Etop: Etoposide. (E) Cell viability assay to examine the effect of MK-8931 treatment on proliferation of glioma stem cells. […] Data are shown as mean±SEM. NS (not significant)≥0.05, Student's t-test.
Cell viability assay was performed by using a Cell Titer-Glo Luminescent Cell Viability Assay Kit according to the manufacturer's instruction (Promega, G7571). For this assay, 1,000 cells were seeded on one well of a 96-well plate in 100 μL of stem cell medium. […] Plate was loaded on the VICTOR Multilabel Plate Reader (PerkinElmer) and the readout were recorded and analyzed. […]

[2] = system: H1002 and H146 lung cancer cells; test: Cell titer viability assay on lung cancer cells; type: cell-based, human; conditions: indicated concentrations, 72 hours, n=3
Description: (A) Effects of BACE1 inhibitors on lung cancer cell proliferation. H1002 and H146 lung cancer cells were treated with the indicated concentrations of the BACE1 inhibitor AZD3293, MK-8931, AZD3839, or PF-06751979 (PF) for 72 hours. Cell viability was assessed by cell titer assay (n=3). (B-D) A preclinical trial of MK-8931 for lung cancer treatment in xenograft models. H1002 lung cancer cells (5×106) were transplanted into mouse right flank through subcutaneous injection to establish subcutaneous lung cancer xenografts. […] Tumors dissected from mice of each group were photographed (C) and weighed (D). […] Data are shown as mean SEM. p **<0.01, Student's t-test.

[3] = system: GBM xenografts derived from T4121 GSCs; test: MK-8931 combined with low dose irradiation in T4121 GBM xenografts
Description: Glioma stem cells (T4121 GSCs) expressing luciferase were transplanted into mouse brains through intracranial injection to establish orthotopic GBM xenografts. Irradiation (2 Gy) was performed on Day 8 and Day 16. […] Representative bioluminescent images (B) at day 7 (before treatment) and day 15 (treatment for one week) are shown. […] Data are shown as mean±SEM. * p<0.05, ** p<0.01, * ** p<0.001, and NS (not significant)≥0.05 as indicated; Student's t-test. Ctl: Control; IR: Irradiation. […] Data are shown as mean±SEM. Log-rank analysis was used to assess the significance. Significances were shown as indicated. Ctl: Control; IR: irradiation.
Frozen xenograft sections were co-immunostained with specific antibodies against IBA1 (in green) and CD163 (in red) or HLA-DR (in red) and counterstained with DAPI (in blue). Representative immunofluorescent images showing the staining of IBA1 and the M2 TAM marker CD163 (A) or IBA1 and the M1 TAM marker HLA-DR (B) in the GBM xenografts. […] (D and E). […] Frozen xenografts sections were immunostained with a specific antibody against cleaved caspase-3 (in green) and counterstained with DAPI (in blue). […] Data are shown as mean±SEM from at least 5 images of 3-5 mice. * p<0.05 and ** p<0.01; Student's t-test. Scale bar represents 3 μM. Ctl: Control; IR: Irradiation; CC-3: Cleaved caspase-3.
Seven days after the implantation, IVIS was performed twice per week to monitor the tumor growth under the Spectrum CT Imaging System (PerkinElmer) before and after treatment. […] Mouse brains bearing the tumors were collected for immunofluorescent, histochemical and histological analyses.
Irradiation (IR) was performed with the Pantek X-ray irradiator (once per week) at low dose (2 Gy). To protect the mice and limit the side effect of irradiation, anesthetized mice were covered by a lead plate and only the tumor implantation sites were exposed to the fractioned radiation. Mice were sacrificed at the indicated time points or upon the appearance of the neurological signs. […] Only animals with accidental death (for example, due to infection or intracranial injection) were excluded from the data analysis.
(§2) Primary antibodies were added to the sections or cells and incubated overnight at 4° C. […] After the incubation of the primary antibodies, the sections or cells were washed three times with cold PBS for five minutes each and then incubated with the secondary antibodies for one hour at room temperature. […] Finally, images were captured by a fluorescence microscopy (Leica DM4000) and further analyzed with ImageJ software.

[4] = system: intracranial xenografts of lung ADC (H1002); test: Intracranial xenografts of lung adenocarcinoma (H1002) brain metastases; type: in vivo, mouse; conditions: 30 mg/kg once daily oral
Description: The lung cancer cells (H1002, ADC) expressing luciferase were transplanted into mouse brains to establish intracranial xenografts of lung ADC. […] Data are shown as mean±SEM. * p<0.05, *** p<0.001, and NS (not significant)≥0.05; Student's t-test.
The lung ADC cancer cells (H1002) expressing luciferase were transplanted into mouse brains to establish intracranial xenografts of lung ADC. […] IVIS was performed twice per week to monitor tumor growth. When humane endpoints occur, mouse was anesthetized and brains with xenografts were harvested for further analyses. […] Frozen xenograft sections were immunostained with a specific antibody against cleaved caspase-3 (in green) and counterstained with DAPI (in blue). […] Frozen xenograft sections were immunostained with a specific antibody against cleaved GLUT1 (in green) and counterstained with DAPI (in blue). […] Frozen xenograft sections were immunostained with a specific antibody against Ki-67 (in green) and counterstained with DAPI (in blue). […] Data are shown as mean±SEM of at least 6 images from 3-5 mice. * p<0.05 and ** p<0.01; Student's t-test.
In brief, GSCs (T4121 and T387) or lung ADC cells (H1002) expressing luciferase were injected into the right cerebral cortex at a depth of 3.5 mm. Seven days after the implantation, IVIS was performed twice per week to monitor the tumor growth under the Spectrum CT Imaging System (PerkinElmer) before and after treatment. […] Mouse brains bearing the tumors were collected for immunofluorescent, histochemical and histological analyses.
as §2

T4121 GSCs = test: Tumorsphere formation assay; type: cell-based, human; conditions: MK-8931 50 μg/mL
Description: as §1
Tumorsphere formation assay was performed as described in our previous study (Shi et al., 2018). Glioma cells (1000 cells) were plated on the one well of a 96-well plate and maintained in the stem cell medium. […] The sizes and numbers of the tumor-sphere in the control and MK-8931 groups were furthered analyzed with ImageJ.

GSCs (T387 and T4121) = test: Immunoblot of apoptotic markers in glioma stem cells; type: cell-based, human; conditions: MK-8931 50 μg/mL, different times
Description: as §1

[5] = IR 2 Gy on Day 8 and Day 16 plus MK-8931 30 mg/kg once daily oral from Day 9, 30 mg/kg

## CN1C(N)=N[C@](C)(c2cc(NC(=O)c3ccc(F)cn3)ccc2F)CS1(=O)=O [MK-8931]
[1]
  proliferation / cell viability of glioma stem cells (cell titer): did not affect
[2]
  lung cancer cell proliferation (cell viability): suppressed lung cancer cell proliferation
[3]; [5]
  survival (Kaplan-Meier), IR plus MK-8931: synergized with MK-8931 treatment to extend survival of the tumor-bearing animals; also recorded: longest survival extension among four experimental groups
  tumor growth (mean bioluminescence), IR plus MK-8931: significantly synergized with MK-8931 treatment to inhibit GBM tumor growth; also recorded: strongest inhibition on GBM growth
[3]; IR (2×2 Gy) plus MK-8931
  TAM subtype (CD163+ M2 vs HLA-DR+ M1), IR plus MK-8931: effectively converted M2 TAMs (CD163+) into M1 macrophages (HLA-DR^+)
[3]; IR (2×2 Gy) plus MK-8931 30 mg/kg, mean±SEM
  apoptosis (fraction of cleaved caspase-3+ cells), IR plus MK-8931: 25.9±3.1%
[3]; MK-8931 30 mg/kg alone, mean±SEM
  apoptosis (fraction of cleaved caspase-3+ cells), MK-8931 treatment alone: 10.4±0.9%
[4]; Days 7, 14 and 21
  tumor growth (mean bioluminescence): significantly inhibited tumor growth of lung ADC brain metastases
[4]; p<0.001
  M1 TAMs (HLA-DR+/IBA1+ cells): significantly increased M1 TAMs
  M2 TAMs (CD163+/IBA1+ cells): significantly reduced M2 TAMs
[4]; p<0.001 by log-rank
  survival (Kaplan-Meier): significantly extended the survival of animals bearing the intracranial lung ADC xenografts
[4]; p<0.01
  cell proliferation (fraction of Ki-67+ cells): significantly reduced cell proliferation
[4]; p<0.05
  apoptosis (fraction of cleaved caspase-3+ cells): significantly augmented apoptosis
  in vivo TAM phagocytosis (inclusion bodies): significantly increased TAM phagocytosis against human lung ADC cells
  vessel density (GLUT1+ cells): significantly reduced vessel density
T4121 GSCs
  number and size of tumorspheres: did not affect GSC sphere formation
GSCs (T387 and T4121)
  apoptotic markers cleaved-PARP and cleaved caspase-3: did not induce apoptosis in GSCs in vitro
